Molecular target: T1, C3aR (Rattus norvegicus, UniProt O55197)
T1 construct: characterize for the first time a C3aR-induced innate immune response in vivo in rats; from tissue; host or cells: live male Wistar rats, hind paw
T1 sequence (O55197 1-473): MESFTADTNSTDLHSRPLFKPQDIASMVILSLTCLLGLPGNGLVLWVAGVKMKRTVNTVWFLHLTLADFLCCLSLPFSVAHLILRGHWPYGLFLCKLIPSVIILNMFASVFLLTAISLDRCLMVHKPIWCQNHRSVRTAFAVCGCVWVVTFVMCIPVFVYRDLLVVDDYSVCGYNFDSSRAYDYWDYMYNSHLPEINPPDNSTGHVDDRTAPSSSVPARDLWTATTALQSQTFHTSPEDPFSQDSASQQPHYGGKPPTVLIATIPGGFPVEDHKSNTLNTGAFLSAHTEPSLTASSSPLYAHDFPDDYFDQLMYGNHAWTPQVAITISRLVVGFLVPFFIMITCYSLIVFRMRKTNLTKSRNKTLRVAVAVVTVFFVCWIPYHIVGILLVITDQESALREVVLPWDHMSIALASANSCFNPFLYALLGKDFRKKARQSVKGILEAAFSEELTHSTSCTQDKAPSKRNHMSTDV
Assay: Agonist-induced acute rat paw edema and immune responses
Type: in vivo
Method: Male Wistar rats (8–9 weeks) were injected with BR103 (3, 350 μg in 100 μL isotonic saline) into the plantar surface of both hind paw pads using a 30G needle. The inhibitor cromolyn (20 mg/kg in 5% DMSO) was injected subcutaneously 30 min before the agonist. The antagonist BR111 (6, 5–20 mg/kg in olive oil) was administered orally as a single dose 2 h before the agonist. Paw thickness and width were measured using digital calipers (WPI) at 0, 0.5, 2, 6 and 24 h after agonist BR103 administration. Hind paw size is expressed as % change in area from baseline after 0.5 h and then normalized against maximum swelling induced by agonist alone. Researchers were not blinded to treatments given.
Rat paw tissue was collected and fixed in 4% paraformaldehyde (pH 7.4) for 2 h in the cold room (4 °C). The rat paw tissue was then transferred into falcon tubes containing 30% sucrose solution in PBS and left overnight in the cold room. The next day, rat paw tissue was embedded with the Optimal Cutting Temperature compound (OCT, Sakura Finetek, USA) and stored in the −80 °C freezer before being used for making cryo-sections for histological analysis. Frozen sections of 5 microns were prepared using a cryostat-microtome (Leica Biosystems, Germany) and stained using standard protocols on the same day. In normal histological staining, such as with alcian blue and safranin O and hematoxylin and eosin (H&E), samples were briefly washed with distilled water before staining. In alcian blue and safranin O, samples were stained with 0.1% alcian blue (Sigma-Aldrich, USA) and 0.5% safranin O (Sigma-Aldrich, USA) before being mounted in mounting medium. In H&E, samples were stained with hematoxylin (Sigma-Aldrich, USA) and 0.1% eosin (Sigma-Aldrich, USA) before being mounted in mounting medium. In immunohistochemistry, samples were briefly rinsed with PBS to remove OCT and incubated with blocking medium (PBS, 0.1% triton X-100, 10% horse serum) for 1 h at room temperature. Samples were incubated with primary antibody medium (PBS, 4% horse serum, 1:200 histamine or 1:200 of tryptase or 1:150 ED1 or 1:200 ED2 antibodies) overnight at 4 °C. The next day, samples were washed with PBS and were incubated with the secondary antibody medium (PBS, 4% horse serum, detection antibody 1:1000) for 1 h at room temperature. The samples were briefly rinsed, dried and counterstained with DAPI (Invitrogen, Australia). Primary antibodies for histamine (Sigma-Aldrich, USA, H2403, monoclonal rabbit anti-rat IgG, 1: 200), tryptase (Abcam, Australia, ab2378, monoclonal mouse anti-rat IgG, 1:200), ED1 (Serotec, UK, MCA341R, monoclonal mouse anti-rat, 1:150), ED2 (Serotec, UK, MCA3424R, monoclonal mouse anti-rat, 1:200) were purchased from commercial sources. Secondary detection antibody was purchased from (Invitrogen, Australia). ED1 & ED2 positive cells were quantified using FIJI/ImageJ 1.42q software, U.S. National Institutes of Health, Bethesda, MD, USA[44]. All microscope images were obtained using an Olympus BX-51 upright microscope with Olympus DP-71 12Mp colour camera, utilizing DP Capture and DP Manager software packages (Olympus, Tokyo, Japan). Researchers who performed histological analysis and scoring were blinded to the sample identity.
Rat paw tissues were collected and immediately frozen with liquid nitrogen. The frozen rat paw tissue samples were weighed and crushed into smaller pieces with a mortar and pestle in liquid nitrogen. The crushed tissues were added to MPO buffer (50 mM potassium phosphate buffer, pH 6.0) to make up a concentration of 200 mg/mL and homogenized using Zirconium oxide beads (Next Advance, USA) and the Bullet Blender® homogeniser (Next Advance, USA). The homogenized tissues were then diluted to 100 mg/mL with the MPO buffer containing 1% hexadecyl trimethylamonium bromide (Sigma-Aldrich, USA) and underwent three cycles of freeze, thaw, and sonication. […]

[1] = 350 µg per paw i.pl., 0.5 h, vs vehicle
[2] = male Wistar rats, 350 µg per paw, i.pl.

Cc1[nH]c(C(c2ccccc2)c2ccccc2)nc1C(=O)N[C@@H](CCCNC(=N)N)C(=O)O [Compound 3]
Activated mast cells in paw tissue [1]: increased number of activated mast cells
Histamine secretion in paw tissue [1]: increased histamine secretion
Infiltration of ED1+ macrophages [1]: temporal increase in infiltration of inflammatory ED1^+ macrophages
Tryptase-positive cells in paw tissue [1]: decreased tryptase-positive cells
Resident ED2+ macrophage cell numbers (350 µg per paw i.pl., vs vehicle): without significantly affecting resident ED2^+ macrophage cell numbers
Proinflammatory gene expression (Il1β, Il6, Tnf, Ccl3, Mcp1) in paw (350 µg/paw i.pl., 0.5, 6, 24 h, vs vehicle): induced the upregulation of many proinflammatory genes
Myeloperoxidase (MPO) activity in paw (350 µg/paw i.pl., 30 min, 6 h, 24 h, vs sham): increased myeloperoxidase (MPO) activity at 6 h, but not at 30 min or 24 h
Paw edema induction [2]: induced an acute inflammatory edema
Time of peak paw swelling [2]: 0.5 h

Reference: article PMC5570900, “Exploiting a novel conformational switch to control innate immunity mediated by complement protein C3a” (Nature Communications, 2017)
